Measured values reported in ChEMBL document CHEMBL2086247, “Protein-ligand crystal structures can guide the design of selective inhibitors of the FGFR tyrosine kinase” (J Med Chem, 2012).

Experiments:
[1] = target: T1, Vascular endothelial growth factor receptor 2 (Homo sapiens, UniProt P35968); assay: Inhibition of human KDR phosphorylation expressed in VEGF-stimulated HUVEC treated 90 mins before VEGF stimulation measured after 5 mins by ELISA; assay type: cell-based
[2] = target: T2, Fibroblast growth factor receptor 1 (Homo sapiens, UniProt P11362); assay: biochemical
T2 sequence (P11362 whole entry): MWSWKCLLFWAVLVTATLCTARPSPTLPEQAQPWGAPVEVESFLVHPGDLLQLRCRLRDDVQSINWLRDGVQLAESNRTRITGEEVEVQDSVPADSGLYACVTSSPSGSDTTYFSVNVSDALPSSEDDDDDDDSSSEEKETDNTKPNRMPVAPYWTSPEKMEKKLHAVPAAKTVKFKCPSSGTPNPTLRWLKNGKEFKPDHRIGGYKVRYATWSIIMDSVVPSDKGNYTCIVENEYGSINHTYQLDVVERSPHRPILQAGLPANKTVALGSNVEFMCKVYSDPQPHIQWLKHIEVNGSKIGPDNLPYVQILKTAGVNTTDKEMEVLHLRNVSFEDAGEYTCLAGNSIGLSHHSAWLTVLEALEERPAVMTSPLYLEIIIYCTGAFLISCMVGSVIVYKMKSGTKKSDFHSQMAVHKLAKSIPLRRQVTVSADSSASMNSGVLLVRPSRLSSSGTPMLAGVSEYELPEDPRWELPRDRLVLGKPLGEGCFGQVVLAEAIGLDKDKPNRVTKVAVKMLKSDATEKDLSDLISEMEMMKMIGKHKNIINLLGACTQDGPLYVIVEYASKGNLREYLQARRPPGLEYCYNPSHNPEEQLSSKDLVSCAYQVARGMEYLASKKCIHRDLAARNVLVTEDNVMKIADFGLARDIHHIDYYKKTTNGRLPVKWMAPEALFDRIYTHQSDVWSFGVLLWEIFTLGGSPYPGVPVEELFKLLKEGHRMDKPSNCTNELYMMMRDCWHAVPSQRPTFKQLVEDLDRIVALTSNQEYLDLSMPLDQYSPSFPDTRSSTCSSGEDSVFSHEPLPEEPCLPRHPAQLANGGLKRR
Description: Inhibition of recombinant N terminal GST-tagged human FGFR1 (456 to 765) expressed in baculovirus infected Sf21 cells after 40 mins by caliper mobility shift assay

[3] = target: T3, Insulin-like growth factor 1 receptor (Homo sapiens, UniProt P08069); assay: Inhibition of recombinant N terminal His6-tagged human IGF1R (959 to end) expressed in baculovirus infected Sf21 cells after 80 mins by caliper mobility shift assay
[4] = target: T2, Fibroblast growth factor receptor 1
Description: Inhibition of human FGFR1 phosphorylation expressed in COS1 cells after 1 hr by immunoblotting

[5] = target: T1, Vascular endothelial growth factor receptor 2; assay: Inhibition of recombinant N terminal GST-tagged human KDR (805 to 1356) expressed in baculovirus infected Sf9 cells after 90 mins by caliper mobility shift assay
[6] = target: T3, Insulin-like growth factor 1 receptor; assay: Inhibition of human IGF1R phosphorylation expressed in IGF-1-stimulated knockout mouse R+ cells treated 30 mins before IGF-1 stimulation measured after 20 mins by immunofluorescence
[7] = target: Dual specificity mitogen-activated protein kinase kinase 1 (Homo sapiens, UniProt Q02750); assay: Inhibition of MEK1 fused with GST by autoradiography
Sequence of Dual specificity mitogen-activated protein kinase kinase 1 (Q02750 whole entry, the tested form may be a part): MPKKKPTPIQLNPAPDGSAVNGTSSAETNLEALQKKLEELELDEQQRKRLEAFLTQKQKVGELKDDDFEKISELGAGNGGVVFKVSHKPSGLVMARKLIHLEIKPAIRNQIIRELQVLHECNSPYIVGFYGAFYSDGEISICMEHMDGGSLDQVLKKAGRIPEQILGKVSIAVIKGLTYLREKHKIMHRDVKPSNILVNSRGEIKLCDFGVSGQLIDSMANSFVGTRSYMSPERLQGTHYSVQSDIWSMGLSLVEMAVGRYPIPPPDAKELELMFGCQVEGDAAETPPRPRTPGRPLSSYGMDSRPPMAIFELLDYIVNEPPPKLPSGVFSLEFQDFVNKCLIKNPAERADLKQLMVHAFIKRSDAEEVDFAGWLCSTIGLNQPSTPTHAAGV

T1 sequence (P35968 whole entry): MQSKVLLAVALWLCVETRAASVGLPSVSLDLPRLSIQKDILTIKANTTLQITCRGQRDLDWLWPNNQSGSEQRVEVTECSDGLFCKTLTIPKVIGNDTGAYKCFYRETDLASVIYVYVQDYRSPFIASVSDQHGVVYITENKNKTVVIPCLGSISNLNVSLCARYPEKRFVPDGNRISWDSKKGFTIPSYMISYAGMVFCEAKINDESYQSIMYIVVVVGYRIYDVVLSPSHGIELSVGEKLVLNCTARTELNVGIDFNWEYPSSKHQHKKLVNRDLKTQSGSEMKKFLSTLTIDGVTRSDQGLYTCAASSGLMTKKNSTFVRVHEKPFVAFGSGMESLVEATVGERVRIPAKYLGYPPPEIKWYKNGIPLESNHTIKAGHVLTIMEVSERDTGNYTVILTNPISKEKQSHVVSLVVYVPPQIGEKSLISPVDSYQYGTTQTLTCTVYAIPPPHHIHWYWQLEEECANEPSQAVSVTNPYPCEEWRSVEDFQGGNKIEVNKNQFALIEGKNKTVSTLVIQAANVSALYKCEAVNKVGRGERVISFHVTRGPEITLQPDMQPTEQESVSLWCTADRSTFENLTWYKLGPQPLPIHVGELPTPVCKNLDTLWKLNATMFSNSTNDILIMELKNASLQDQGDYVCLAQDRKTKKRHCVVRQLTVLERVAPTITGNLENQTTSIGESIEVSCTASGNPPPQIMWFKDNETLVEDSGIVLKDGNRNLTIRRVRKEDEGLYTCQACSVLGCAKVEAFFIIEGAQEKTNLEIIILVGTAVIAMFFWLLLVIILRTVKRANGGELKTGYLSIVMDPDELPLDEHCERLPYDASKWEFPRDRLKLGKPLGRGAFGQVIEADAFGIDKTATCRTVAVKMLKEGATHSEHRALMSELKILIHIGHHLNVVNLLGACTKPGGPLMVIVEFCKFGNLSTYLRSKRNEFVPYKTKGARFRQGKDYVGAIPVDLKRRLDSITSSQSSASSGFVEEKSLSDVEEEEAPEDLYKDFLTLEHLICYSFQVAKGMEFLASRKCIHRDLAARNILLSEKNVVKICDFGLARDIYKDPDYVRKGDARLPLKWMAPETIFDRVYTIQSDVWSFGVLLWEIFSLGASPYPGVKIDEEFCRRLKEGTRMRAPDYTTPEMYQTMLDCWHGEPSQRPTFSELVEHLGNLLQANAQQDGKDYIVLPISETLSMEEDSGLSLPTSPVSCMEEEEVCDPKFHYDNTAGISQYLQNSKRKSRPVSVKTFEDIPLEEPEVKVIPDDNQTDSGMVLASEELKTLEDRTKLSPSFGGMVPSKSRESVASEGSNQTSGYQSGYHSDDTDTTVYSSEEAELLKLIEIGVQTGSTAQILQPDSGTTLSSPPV

| IC50 [1] [nM] | IC50 [2] [nM] | IC50 [3] [nM] | IC50 [4] [nM] | IC50 [5] [nM] | IC50 [6] [nM] | IC50 [7] [nM] | SMILES |
| --- | --- | --- | --- | --- | --- | --- | --- |
| 6310 | 63.1 | 7940 | 158 | 631 | 6310 |  | Cc1cc(Nc2nc(NCc3cc(C)no3)ncc2Br)[nH]n1 |
| > 10000 | 31.6 | 10000 | 158 | 3980 | 3160 |  | Cc1cc(Nc2nc(NCc3cc(C(C)(C)C)no3)ncc2Br)[nH]n1 |
| 6310 | 10 | 398 | 100 | 158 | 501 |  | CCCc1cc(Nc2nc(NCc3cc(C)no3)ncc2Br)n[nH]1 |
| 1580 | 2.51 | 6310 | 63.1 | 25.1 | 10000 |  | Cc1cc(CNc2ncc(Br)c(Nc3cc(CCc4ccccc4)[nH]n3)n2)on1 |
| 1580 | 2 | 6310 | < 15.8 | 79.4 | 5010 |  | COc1cc(CCc2cc(Nc3ccnc(NCc4cc(C)no4)n3)n[nH]2)cc(OC)c1 |
|  |  | 12600 |  | 1000 |  |  | Cc1cc(CNc2nccc(Nc3cc(C)[nH]n3)n2)on1 |
|  | 200 | 12600 |  | 1580 |  |  | Cc1cc(Nc2nc(NCc3ccccn3)ncc2Br)n[nH]1 |
|  | 398 | 15800 |  | 501 |  |  | Cc1cc(CCNc2ncc(Br)c(Nc3cc(C)[nH]n3)n2)on1 |
|  |  | 10000 |  | 15800 |  |  | Cc1cc(Nc2nc(NCc3cc(C(=O)N4CCCC4)no3)ncc2Br)n[nH]1 |
|  | 100 | 7940 |  | 1260 |  |  | Cc1cc(Nc2ccnc(NCc3cc(C(N)=O)no3)n2)[nH]n1 |
|  | 39.8 | 3160 |  | 501 |  |  | CCc1cc(Nc2nc(NCc3ccccn3)ncc2Br)n[nH]1 |
|  |  | 100 |  | 3160 |  |  | CCc1cc(Nc2nc(NCc3cc(-c4ccccn4)no3)ncc2Br)n[nH]1 |
|  |  | 12600 |  | 1580 |  |  | COCCCc1cc(Nc2ccnc(NCc3cc(C4CC4)no3)n2)n[nH]1 |
|  |  | 100000 |  | 1260 |  |  | COCCCc1cc(Nc2ccnc(NCc3cc(C(N)=O)no3)n2)[nH]n1 |
|  | 5.01 | 79400 |  | 398 |  |  | COc1cc(CCc2cc(Nc3ccnc(NCc4ccccn4)n3)[nH]n2)cc(OC)c1 |
|  | 2 | 12600 |  | 126 |  |  | COc1cc(CCc2cc(Nc3ccnc(NCc4cc(C)on4)n3)n[nH]2)cc(OC)c1 |
|  |  |  |  |  |  | > 50000 | CCN(CC)CCCCNc1ncc2cc(-c3cc(OC)cc(OC)c3)c(NC(=O)NC(C)(C)C)nc2n1 [PD-173074] |

The next lines start with the compound.

| SMILES | IC50 [1] [nM] | IC50 [2] [nM] | IC50 [3] [nM] | IC50 [4] [nM] | IC50 [5] [nM] | IC50 [6] [nM] | IC50 [7] [nM] |
| --- | --- | --- | --- | --- | --- | --- | --- |
| Cc1cc(Nc2nc(NCCc3cccnc3)ncc2Br)[nH]n1 | > 10000 | 501 | 6310 | 2510 | 631 | 3980 |  |
| C=CCNc1ncc(Br)c(Nc2cc(C)[nH]n2)n1 | 794 |  | 3980 |  | 1000 | 6310 |  |
| COCCCc1cc(Nc2nc(NCc3cc(C)no3)ncc2Br)[nH]n1 | > 10000 | 63.1 | 20000 | 794 | 1260 | > 20000 |  |
| Cc1cc(CNc2ncc(Cl)c(Nc3cc(C)[nH]n3)n2)on1 |  |  | 7940 |  | 501 |  |  |
| COCCCc1cc(Nc2ccnc(NCc3cc(C)no3)n2)n[nH]1 |  |  |  |  | 2510 |  |  |
| Cc1cc(CNc2nccc(Nc3cc(CCc4ccccc4)[nH]n3)n2)on1 |  |  |  |  | 126 |  |  |
| Cc1cc(Nc2nc(NCCCc3c[nH]nc3C)ncc2Br)n[nH]1 |  | 126 | 6310 |  | 501 |  |  |
| Cc1cc(Nc2nc(NCCc3ccco3)ncc2Br)n[nH]1 |  | 200 | 3980 |  | 200 |  |  |
| Cc1cnc(CNc2ncc(Br)c(Nc3cc(C)[nH]n3)n2)cn1 |  | 100 | 12600 |  | 1000 |  |  |
| Cc1cc(Nc2nc(NCc3ncccc3C)ncc2Br)n[nH]1 |  |  | 50100 |  | 501 |  |  |
| Cc1cc(Nc2ccnc(NCc3cc(C4CC4)no3)n2)n[nH]1 |  | 25.1 | 10000 |  | 794 |  |  |
| Cc1cc(CNc2nccc(Nc3cc(CO)[nH]n3)n2)on1 |  |  | 39800 |  | 20000 |  |  |
| CCCc1cc(Nc2nc(NCc3cccnc3)ncc2Br)n[nH]1 |  |  | 1580 |  | 126 |  |  |
| CC(C)c1cc(Nc2nc(NCc3cccnc3)ncc2Br)n[nH]1 |  |  | 398 |  | 398 |  |  |
